Results as given in patent US11331299B2, “Medicinal use of serrulatane diterpenes” (The University of Sydney, priority 2016, dated 2022).

Legend:
DNMT3b = DNMT3b (Homo sapiens, UniProt Q9UBC3); experiment: Epigenetic enzyme assay, DNA methyltransferases (DNMTs); type: biochemical; conditions: for inhibition at 10 µM: read-out: % Inhibition of Control Values
NSD1 (h) = NSD1 (h) (Homo sapiens, UniProt Q96L73); experiment: Epigenetic enzyme assay, Methyltransferases (MTs); type: biochemical; conditions: for inhibition at 10 µM: read-out: % Inhibition of Control Values
Sequence of NSD1 (h) (Q96L73 whole entry): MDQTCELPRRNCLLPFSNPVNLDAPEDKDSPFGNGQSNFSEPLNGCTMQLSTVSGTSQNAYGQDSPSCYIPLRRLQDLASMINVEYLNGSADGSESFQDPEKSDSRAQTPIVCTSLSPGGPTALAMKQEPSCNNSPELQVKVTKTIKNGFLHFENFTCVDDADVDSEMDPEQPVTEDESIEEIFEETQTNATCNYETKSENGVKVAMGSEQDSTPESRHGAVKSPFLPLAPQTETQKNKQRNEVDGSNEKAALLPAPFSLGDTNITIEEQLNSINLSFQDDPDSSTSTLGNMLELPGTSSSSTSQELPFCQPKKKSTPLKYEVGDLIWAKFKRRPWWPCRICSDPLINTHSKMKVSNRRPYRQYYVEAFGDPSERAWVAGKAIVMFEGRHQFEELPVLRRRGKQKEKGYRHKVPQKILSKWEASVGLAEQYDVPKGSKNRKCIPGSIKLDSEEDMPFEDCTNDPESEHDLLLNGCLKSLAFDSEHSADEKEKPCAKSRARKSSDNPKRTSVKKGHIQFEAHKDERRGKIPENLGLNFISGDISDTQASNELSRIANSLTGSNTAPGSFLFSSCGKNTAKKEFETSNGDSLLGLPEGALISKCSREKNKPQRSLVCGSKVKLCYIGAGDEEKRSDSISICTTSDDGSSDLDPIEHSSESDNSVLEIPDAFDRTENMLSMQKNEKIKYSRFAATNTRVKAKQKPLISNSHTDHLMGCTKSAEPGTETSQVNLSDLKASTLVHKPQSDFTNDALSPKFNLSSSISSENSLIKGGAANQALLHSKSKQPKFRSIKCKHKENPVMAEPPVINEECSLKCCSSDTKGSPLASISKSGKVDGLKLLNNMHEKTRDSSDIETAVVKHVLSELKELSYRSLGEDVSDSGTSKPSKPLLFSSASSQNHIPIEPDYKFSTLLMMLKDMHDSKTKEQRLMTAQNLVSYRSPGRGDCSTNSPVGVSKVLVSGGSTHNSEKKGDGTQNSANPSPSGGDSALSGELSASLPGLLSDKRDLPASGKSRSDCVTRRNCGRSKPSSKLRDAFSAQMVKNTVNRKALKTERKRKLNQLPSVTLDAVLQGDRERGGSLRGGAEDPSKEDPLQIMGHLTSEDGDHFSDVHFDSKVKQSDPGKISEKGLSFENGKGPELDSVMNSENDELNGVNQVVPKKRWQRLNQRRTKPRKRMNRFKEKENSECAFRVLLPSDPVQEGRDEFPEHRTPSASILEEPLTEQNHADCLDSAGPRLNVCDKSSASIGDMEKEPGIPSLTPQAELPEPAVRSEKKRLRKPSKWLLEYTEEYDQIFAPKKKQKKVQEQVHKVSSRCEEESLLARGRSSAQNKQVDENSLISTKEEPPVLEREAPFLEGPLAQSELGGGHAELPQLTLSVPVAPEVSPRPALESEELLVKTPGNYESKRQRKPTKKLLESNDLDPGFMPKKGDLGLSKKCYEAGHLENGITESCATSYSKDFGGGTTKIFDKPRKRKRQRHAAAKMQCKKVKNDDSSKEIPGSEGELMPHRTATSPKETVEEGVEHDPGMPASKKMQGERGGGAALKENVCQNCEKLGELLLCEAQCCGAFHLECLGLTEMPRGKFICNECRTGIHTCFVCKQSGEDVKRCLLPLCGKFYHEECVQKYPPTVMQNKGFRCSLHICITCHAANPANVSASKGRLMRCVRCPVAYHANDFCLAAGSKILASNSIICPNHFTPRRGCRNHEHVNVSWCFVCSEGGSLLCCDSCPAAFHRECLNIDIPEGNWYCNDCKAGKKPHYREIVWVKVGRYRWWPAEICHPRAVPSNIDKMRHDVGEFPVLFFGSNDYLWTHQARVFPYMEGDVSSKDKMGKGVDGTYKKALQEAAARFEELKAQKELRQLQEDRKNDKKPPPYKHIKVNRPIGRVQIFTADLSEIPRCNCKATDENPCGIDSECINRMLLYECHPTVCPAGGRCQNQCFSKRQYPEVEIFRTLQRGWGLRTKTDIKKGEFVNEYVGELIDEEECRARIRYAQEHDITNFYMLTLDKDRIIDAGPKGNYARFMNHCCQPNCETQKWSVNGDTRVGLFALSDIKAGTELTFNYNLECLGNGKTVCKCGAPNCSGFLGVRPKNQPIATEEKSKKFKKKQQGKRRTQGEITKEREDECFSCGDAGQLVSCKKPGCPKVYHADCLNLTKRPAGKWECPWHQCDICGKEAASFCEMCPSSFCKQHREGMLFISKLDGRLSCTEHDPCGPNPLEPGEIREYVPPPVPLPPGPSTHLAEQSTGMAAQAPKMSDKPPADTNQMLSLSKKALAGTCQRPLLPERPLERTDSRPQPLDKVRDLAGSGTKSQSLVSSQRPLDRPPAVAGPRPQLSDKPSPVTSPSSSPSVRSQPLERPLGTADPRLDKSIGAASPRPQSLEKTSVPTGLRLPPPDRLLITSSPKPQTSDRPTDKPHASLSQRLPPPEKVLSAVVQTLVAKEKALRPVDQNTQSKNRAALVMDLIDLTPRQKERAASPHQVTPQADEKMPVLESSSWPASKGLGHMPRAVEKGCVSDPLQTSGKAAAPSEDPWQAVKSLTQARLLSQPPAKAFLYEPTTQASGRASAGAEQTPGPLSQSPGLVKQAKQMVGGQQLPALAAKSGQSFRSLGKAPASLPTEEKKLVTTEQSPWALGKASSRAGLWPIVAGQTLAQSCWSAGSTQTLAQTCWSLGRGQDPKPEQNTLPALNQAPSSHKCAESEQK

`CC(C)=CCC[C@H](CO)[C@@H]1CC[C@@H](C)c2c1cc(C)c(O)c2O` [Compound 1, 7,8,18-trihydroxyserrulat-14-ene] was tested. Which inhibition at 10 µM (DNMT3b) did it give?
Its inhibition at 10 µM is -3%.

What about the inhibition at 10 µM (NSD1 (h)) of the same compound?
Its inhibition at 10 µM is 69%.

And the IC50 (NSD1 (h); Table 11, inhibition/concentration-response curve, read-out: IC50)?
Its IC50 is 4.9 µM.

What does the source list for `CC(C)=CCC[C@@H]1C(O)Oc2c(C)cc(O)c3c2[C@H]1CC[C@H]3C` (some centres unmarked) [Compound 2, 5,18-epoxyserrulat-14-en-8,18-diol]?
inhibition at 10 µM (DNMT3b): -17%; inhibition at 10 µM (NSD1 (h)): 29%

For `Nc1ncnc2c1ncn2[C@@H]1O[C@H](CSCC[C@H](N)C(=O)O)[C@@H](O)[C@H]1O` [SAH], which IC50 (DNMT3b; read-out: Reference IC50) is on record?
Its IC50 is 0.094 µM.

Which results are given for `CC(C)=CCC[C@@H]1COc2c(C)cc(O)c3c2[C@H]1CC[C@H]3C` [Compound 3, 5,18-epoxy-8-hydroxyserrulat-14-ene]?
inhibition at 10 µM (DNMT3b): -4%; inhibition at 10 µM (NSD1 (h)): -10%
